In patent US6737383B1, “Herbicidal oxadiazolidines” (priority 1999, dated 2004):

Assays:
[1] = test system: bedstraw; test: Test B pre/postemergence bedstraw; type: in vivo, Galium aparine
Method in brief: (§1)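 Response is a visual 0-to-10 score relative to untreated plants, where 0 means no effect and 10 means complete control, taken twelve to sixteen days after application. Treatments went onto soil at planting and onto foliage of 1- to 4-leaf plants, using a surfactant-containing non-phytotoxic solvent.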

[2] = test system: blackgrass; test: Test B pre/postemergence blackgrass; type: in vivo, Alopecurus myosuroides
Method in brief: as §1

[3] = test system: surinam grass; test: Test B pre/postemergence surinam grass; type: in vivo, Brachiaria decumbens
Method in brief: as §1

[4] = test system: cocklebur; test: Test B pre/postemergence cocklebur; type: in vivo, Xanthium strumarium
Method in brief: as §1

[5] = test system: giant foxtail; test: Test B pre/postemergence giant foxtail; type: in vivo, Setaria faberii
Method in brief: as §1

[6] = test system: morningglory; test: Test B pre/postemergence morningglory; type: in vivo, Ipomoea hederacea
Method in brief: as §1

[7] = test system: pigweed; test: Test B pre/postemergence pigweed; type: in vivo, Amaranthus retroflexus
Method in brief: as §1

[8] = test system: rape; test: Test B pre/postemergence rape; type: in vivo, Brassica napus
Method in brief: as §1

[9] = test system: soybean; test: Test B pre/postemergence soybean; type: in vivo, Glycine max
Method in brief: as §1

[10] = test system: velvetleaf; test: Test B pre/postemergence velvetleaf; type: in vivo, Abutilon theophrasti
Method in brief: as §1

[11] = test system: wheat; test: Test B pre/postemergence wheat; type: in vivo, Triticum aestivum
Method in brief: as §1

[12] = test system: wild oat; test: Test B pre/postemergence wild oat; type: in vivo, Avena fatua
Method in brief: as §1

[13] = test system: purple nutsedge; test: Test B pre/postemergence purple nutsedge; type: in vivo, Cyperus rotundus
Method in brief: as §1

[14] = test system: smallflower flatsedge; test: Test B flood test smallflower flatsedge; type: in vivo, Cyperus difformis; details: for S. Flatsedge plant response rating: scale of 0 to 10 where 0 is no effect and 10 is complete control
Method in brief: (§2)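 Plants were grown to the 2-leaf stage before treatment with test chemical, then held in a greenhouse for twelve to sixteen days. Injury was visually rated against untreated controls on a 0–10 scale, where 0 is no effect and 10 is complete control.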

[15] = test system: duck salad; test: Test B flood test duck salad; type: in vivo, Heteranthera limosa
Method in brief: as §2

[16] = test system: bamyardgrass; test: Test B flood test barnyardgrass; type: in vivo, Echinochloa crus-galli
Method in brief: as §2

[17] = Postemergence, Rate 125 g/ha, scale of 0 to 10 where 0 is no effect and 10 is complete control
[18] = Preemergence, Rate 62 g/ha, scale 0 to 10 (0 no effect, 10 complete control)
[19] = Preemergence, Rate 125 g/ha, 0 is no effect, 10 is complete control
[20] = Preemergence, Rate 250 g/ha, scale 0 to 10, 0 is no effect, 10 is complete control
[21] = Preemergence, Rate 500 g/ha, scale 0 to 10 (0 no effect, 10 complete control)
[22] = Rate 62 g/ha, Postemergence, scale of 0 to 10 where 0 is no effect and 10 is complete control
[23] = Rate 250 g/ha, Postemergence, scale 0 to 10, 0 is no effect, 10 is complete control
[24] = Rate 500 g/ha, Postemergence, scale 0 to 10
[25] = Rate 250 g/ha, Postemergence (flood test), scale 0 to 10, 0 is no effect, 10 is complete control
[26] = Postemergence (flood test species), Rate 125 g/ha, scale of 0 to 10 where 0 is no effect and 10 is complete control
[27] = Rate 31 g/ha, Postemergence section (flood test species), scale 0 to 10
[28] = Rate 62 g/ha, Postemergence section, flood test species, scale of 0 to 10 where 0 is no effect and 10 is complete control

## CC(C)N(C(=O)n1oc(=O)n(C)c1=O)c1ccc(Cl)cc1 [Compound 137]
[1]; [17]
  Bedstraw plant response rating: 8
[1]; [18]
  Bedstraw plant response rating: 4
[1]; [19]
  Bedstraw plant response rating (0 to 10 scale): 7
[1]; [20]
  Bedstraw plant response rating: 7
[1]; [21]
  Bedstraw plant response rating: 10
[1]; [22]
  Bedstraw plant response rating: 4
[1]; [23]
  Plant response rating, Bedstraw: 8
[2]; [17]
  Blackgrass plant response rating: 6
[2]; [18]
  Blackgrass plant response rating: 7
[2]; [19]
  Blackgrass plant response rating (0 to 10 scale): 9
[2]; [20]
  Blackgrass plant response rating: 9
[2]; [21]
  Blackgrass plant response rating: 10
[2]; [22]
  Blackgrass plant response rating: 5
[2]; [23]
  Plant response rating, Blackgrass: 8
[2]; [24]
  Blackgrass plant response rating: 8
[3]; [17]
  B. signalgrass plant response rating: 4
[3]; [18]
  B. signalgrass plant response rating: 3
[3]; [19]
  B. signalgrass plant response rating (0 to 10 scale): 5
[3]; [20]
  B. signalgrass plant response rating: 7
[3]; [21]
  B. signalgrass plant response rating: 9
[3]; [22]
  B. signalgrass plant response rating: 0
[3]; [23]
  Plant response rating, B. signalgrass: 5
[3]; Rate 500 g/ha, Postemergence, scale of 0 to 10 where 0 is no effect and 10 is complete control
  B. signalgrass plant response rating: 8
[4]; [17]
  Cocklebur plant response rating: 0
[4]; [18]
  Cocklebur plant response rating: 0
[4]; [19]
  Cocklebur plant response rating (0 to 10 scale): 0
[4]; [20]
  Cocklebur plant response rating: 0
[4]; [21]
  Cocklebur plant response rating: 0
[4]; [22]
  Cocklebur plant response rating: 0
[4]; [23]
  Plant response rating, Cocklebur: 3
[4]; [24]
  Cocklebur plant response rating: 4
[5]; [17]
  Giant foxtail plant response rating: 8
[5]; [18]
  Giant foxtail plant response rating: 8
[5]; [19]
  Giant foxtail plant response rating (0 to 10 scale): 9
[5]; [20]
  Giant foxtail plant response rating: 10
[5]; [21]
  Giant foxtail plant response rating: 10
[5]; [22]
  Giant foxtail plant response rating: 8
[5]; [23]
  Plant response rating, Giant foxtail: 9
[5]; [24]
  Giant foxtail plant response rating: 9
[6]; [17]
  Morningglory plant response rating: 7
[6]; [18]
  Morningglory plant response rating: 0
[6]; [19]
  Morningglory plant response rating (0 to 10 scale): 0
[6]; [20]
  Morningglory plant response rating: 0
[6]; [21]
  Morningglory plant response rating: 1
[6]; [22]
  Morningglory plant response rating: 7
[6]; [23]
  Plant response rating, Morningglory: 7
[6]; [24]
  Morningglory plant response rating: 8
[7]; [17]
  Redroot pigweed plant response rating: 4
[7]; [18]
  Redroot pigweed plant response rating: 9
[7]; [19]
  Redroot pigweed plant response rating (0 to 10 scale): 10
[7]; [20]
  Redroot pigweed plant response rating: 10
[7]; [21]
  Redroot pigweed plant response rating: 10
[7]; [22]
  Redroot pigweed plant response rating: 2
[7]; [23]
  Plant response rating, Redroot pigweed: 5
[7]; [24]
  Redroot pigweed plant response rating: 6
[8]; [18]
  Rape plant response rating: 0
[8]; [19]
  Rape plant response rating (0 to 10 scale): 4
[8]; [20]
  Rape plant response rating: 10
[8]; [21]
  Rape plant response rating: 10
[8]; [22]
  Rape plant response rating: 0
[8]; [23]
  Plant response rating, Rape: 6
[8]; [24]
  Rape plant response rating: 7
[9]; [17]
  Soybean plant response rating: 6
[9]; [18]
  Soybean plant response rating: 0
[9]; [19]
  Soybean plant response rating (0 to 10 scale): 0
[9]; [20]
  Soybean plant response rating: 3
[9]; [21]
  Soybean plant response rating: 5
[9]; [22]
  Soybean plant response rating: 5
[9]; [23]
  Plant response rating, Soybean: 7
[9]; [24]
  Soybean plant response rating: 8
[10]; [17]
  Velvetleaf plant response rating: 0
[10]; [18]
  Velvetleaf plant response rating: 3
[10]; [19]
  Velvetleaf plant response rating (0 to 10 scale): 6
[10]; [20]
  Velvetleaf plant response rating: 7
[10]; [21]
  Velvetleaf plant response rating: 10
[10]; [22]
  Velvetleaf plant response rating: 0
[10]; [23]
  Plant response rating, Velvetleaf: 4
[10]; [24]
  Velvetleaf plant response rating: 5
[11]; [17]
  Wheat plant response rating: 0
[11]; [18]
  Wheat plant response rating: 0
[11]; [19]
  Wheat plant response rating (0 to 10 scale): 4
[11]; [20]
  Wheat plant response rating: 5
[11]; [21]
  Wheat plant response rating: 5
[11]; [22]
  Wheat plant response rating: 0
[11]; [23]
  Plant response rating, Wheat: 5
[11]; [24]
  Wheat plant response rating: 6
[12]; [17]
  Wild oats plant response rating: 2
[12]; [18]
  Wild oats plant response rating: 5
[12]; [19]
  Wild oats plant response rating (0 to 10 scale): 8
[12]; [20]
  Wild oats plant response rating: 9
[12]; [21]
  Wild oats plant response rating: 10
[12]; [22]
  Wild oats plant response rating: 1
[12]; [23]
  Plant response rating, Wild oats: 4
[12]; [24]
  Wild oats plant response rating: 5
[13]; [17]
  Nutsedge plant response rating: 0
[13]; [18]
  Nutsedge plant response rating: 0
[13]; [19]
  Nutsedge plant response rating (0 to 10 scale): 0
[13]; [20]
  Nutsedge plant response rating: 0
[13]; [22]
  Nutsedge plant response rating: 0
[13]; [23]
  Plant response rating, Nutsedge: 3
[13]; [24]
  Nutsedge plant response rating: 4
[14]; Postemergence (flood test species), Rate 125 g/ha
  S. Flatsedge plant response rating: 0
[14]; Rate 62 g/ha, Postemergence section, flood test species
  S. Flatsedge plant response rating: 0
[14]; [25]
  Plant response rating, S. Flatsedge: 0
[15]; [26]
  Ducksalad plant response rating: 0
[15]; [27]
  Ducksalad plant response rating: 0
[15]; [28]
  Ducksalad plant response rating: 0
[15]; [25]
  Plant response rating, Ducksalad: 0
[16]; [26]
  Barnyardgrass plant response rating: 0
[16]; [27]
  Barnyardgrass plant response rating: 0
[16]; [28]
  Barnyardgrass plant response rating: 0
[16]; [25]
  Plant response rating, Barnyardgrass: 0
